The IC50 is the concentration needed to halve the response being measured.

Holding throughout (format): biochemical
One assay addresses T1, HDAC8 (Homo sapiens, UniProt Q9BY41).
T1 sequence (Q9BY41 1-377): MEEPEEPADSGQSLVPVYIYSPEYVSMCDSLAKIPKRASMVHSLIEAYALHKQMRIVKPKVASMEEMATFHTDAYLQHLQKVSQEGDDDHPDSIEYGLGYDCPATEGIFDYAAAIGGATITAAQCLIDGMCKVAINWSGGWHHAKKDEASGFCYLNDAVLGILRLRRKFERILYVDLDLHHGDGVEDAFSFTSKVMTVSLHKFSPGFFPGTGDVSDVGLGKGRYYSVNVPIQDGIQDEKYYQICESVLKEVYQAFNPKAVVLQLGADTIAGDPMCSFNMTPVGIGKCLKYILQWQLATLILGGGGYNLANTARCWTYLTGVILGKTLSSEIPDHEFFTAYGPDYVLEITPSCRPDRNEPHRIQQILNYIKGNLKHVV
Put plainly: Inhibition of HDAC8 deacetylase activity in vitro.

The target in a further assay is HDAC1 (Homo sapiens, UniProt Q13547). Put plainly: Inhibition of HDAC1 deacetylase activity in vitro. Particulars: ratio of IC50 values.
Sequence of HDAC1 (Q13547 whole entry): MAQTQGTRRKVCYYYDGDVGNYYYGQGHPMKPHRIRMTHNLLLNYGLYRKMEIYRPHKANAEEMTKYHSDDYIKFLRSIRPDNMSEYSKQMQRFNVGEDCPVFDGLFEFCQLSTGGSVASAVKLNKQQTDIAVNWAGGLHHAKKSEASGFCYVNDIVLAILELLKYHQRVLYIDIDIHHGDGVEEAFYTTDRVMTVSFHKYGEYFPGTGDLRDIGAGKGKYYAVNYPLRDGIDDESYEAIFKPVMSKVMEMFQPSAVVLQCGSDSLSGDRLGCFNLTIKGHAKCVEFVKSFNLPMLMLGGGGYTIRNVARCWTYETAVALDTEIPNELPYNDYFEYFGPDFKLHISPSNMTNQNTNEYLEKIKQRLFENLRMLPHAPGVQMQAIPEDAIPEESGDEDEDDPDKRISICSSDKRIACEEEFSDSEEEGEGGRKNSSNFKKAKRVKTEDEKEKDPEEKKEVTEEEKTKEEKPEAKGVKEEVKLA
The target of another assay is HDAC10 (Homo sapiens, UniProt Q969S8). The assay can be described thus: Inhibition of HDAC10 deacetylase activity in vitro. As to conditions: ratio of IC50 values.
Sequence of HDAC10 (Q969S8 whole entry): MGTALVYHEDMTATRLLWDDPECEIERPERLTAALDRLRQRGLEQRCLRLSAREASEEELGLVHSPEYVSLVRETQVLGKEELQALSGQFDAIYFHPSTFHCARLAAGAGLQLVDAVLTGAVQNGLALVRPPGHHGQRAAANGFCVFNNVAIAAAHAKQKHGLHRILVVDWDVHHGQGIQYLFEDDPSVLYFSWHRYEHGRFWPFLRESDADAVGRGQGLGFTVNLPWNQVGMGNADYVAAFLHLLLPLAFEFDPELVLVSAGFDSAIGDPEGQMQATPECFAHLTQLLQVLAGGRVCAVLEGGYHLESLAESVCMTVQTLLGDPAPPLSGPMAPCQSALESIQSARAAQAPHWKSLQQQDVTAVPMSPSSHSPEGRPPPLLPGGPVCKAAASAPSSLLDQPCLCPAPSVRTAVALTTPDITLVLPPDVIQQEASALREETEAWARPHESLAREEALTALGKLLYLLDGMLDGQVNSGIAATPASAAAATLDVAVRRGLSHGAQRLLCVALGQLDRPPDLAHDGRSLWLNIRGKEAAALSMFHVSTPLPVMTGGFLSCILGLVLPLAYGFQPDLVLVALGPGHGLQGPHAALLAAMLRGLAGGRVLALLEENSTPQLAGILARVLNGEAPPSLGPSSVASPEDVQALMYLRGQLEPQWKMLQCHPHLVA
The target in another assay is HDAC6 (Homo sapiens, UniProt Q9UBN7). Put plainly: Inhibition of HDAC6 deacetylase activity in vitro. Particulars: ratio of IC50 values.
Sequence of HDAC6 (Q9UBN7 whole entry): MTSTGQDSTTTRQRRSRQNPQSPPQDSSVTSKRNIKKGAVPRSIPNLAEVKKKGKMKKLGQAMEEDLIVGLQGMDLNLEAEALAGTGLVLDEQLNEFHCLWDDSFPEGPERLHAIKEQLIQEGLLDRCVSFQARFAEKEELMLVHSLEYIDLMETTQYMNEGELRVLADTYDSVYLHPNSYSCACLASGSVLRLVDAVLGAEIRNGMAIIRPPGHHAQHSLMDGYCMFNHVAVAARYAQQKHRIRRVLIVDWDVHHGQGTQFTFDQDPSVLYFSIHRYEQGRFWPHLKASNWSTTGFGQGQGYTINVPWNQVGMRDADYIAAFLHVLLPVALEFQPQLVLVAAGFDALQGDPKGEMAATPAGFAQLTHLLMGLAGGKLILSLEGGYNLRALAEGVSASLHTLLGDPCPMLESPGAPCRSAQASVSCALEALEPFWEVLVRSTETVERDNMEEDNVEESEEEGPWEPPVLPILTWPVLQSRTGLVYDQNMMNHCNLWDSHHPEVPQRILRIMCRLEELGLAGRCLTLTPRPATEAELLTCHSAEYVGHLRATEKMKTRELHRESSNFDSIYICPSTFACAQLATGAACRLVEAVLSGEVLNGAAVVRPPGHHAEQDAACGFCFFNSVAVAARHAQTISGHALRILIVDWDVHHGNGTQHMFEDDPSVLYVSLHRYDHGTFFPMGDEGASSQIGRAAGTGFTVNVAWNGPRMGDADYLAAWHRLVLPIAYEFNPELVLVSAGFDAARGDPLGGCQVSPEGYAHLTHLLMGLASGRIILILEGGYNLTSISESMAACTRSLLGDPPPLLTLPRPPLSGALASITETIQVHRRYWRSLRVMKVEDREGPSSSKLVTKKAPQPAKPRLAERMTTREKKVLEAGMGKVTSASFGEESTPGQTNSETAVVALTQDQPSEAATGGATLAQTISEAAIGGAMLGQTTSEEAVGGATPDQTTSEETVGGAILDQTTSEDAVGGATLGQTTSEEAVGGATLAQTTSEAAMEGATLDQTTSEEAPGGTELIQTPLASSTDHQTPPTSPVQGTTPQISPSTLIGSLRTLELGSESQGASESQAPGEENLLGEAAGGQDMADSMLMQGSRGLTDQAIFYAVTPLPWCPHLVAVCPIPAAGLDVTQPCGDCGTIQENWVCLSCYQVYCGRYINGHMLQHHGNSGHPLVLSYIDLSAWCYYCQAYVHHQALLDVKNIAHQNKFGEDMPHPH
The next assay deals with HDAC3 (Homo sapiens, UniProt O15379). The assay can be described thus: Inhibition of HDAC3 deacetylase activity in vitro. Particulars: ratio of IC50 values.
Sequence of HDAC3 (O15379 whole entry): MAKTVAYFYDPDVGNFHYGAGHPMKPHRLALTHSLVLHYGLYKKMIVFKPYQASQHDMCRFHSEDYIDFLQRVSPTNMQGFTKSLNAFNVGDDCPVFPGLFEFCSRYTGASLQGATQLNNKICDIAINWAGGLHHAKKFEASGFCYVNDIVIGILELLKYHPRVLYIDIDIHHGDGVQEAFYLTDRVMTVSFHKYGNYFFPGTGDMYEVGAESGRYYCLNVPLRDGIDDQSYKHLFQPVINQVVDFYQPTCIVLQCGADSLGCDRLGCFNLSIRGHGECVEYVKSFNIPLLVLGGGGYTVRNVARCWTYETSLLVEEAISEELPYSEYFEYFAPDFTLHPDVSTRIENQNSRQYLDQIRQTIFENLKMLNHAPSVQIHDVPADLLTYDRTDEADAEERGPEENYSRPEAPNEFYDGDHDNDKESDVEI
Sequence of HDAC3 (Q9Y618 389-480 partner limits assumed): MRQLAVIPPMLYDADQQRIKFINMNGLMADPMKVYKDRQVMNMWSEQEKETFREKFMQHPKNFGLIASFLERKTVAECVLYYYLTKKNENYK
The next assay has as its target HDAC2 (Homo sapiens, UniProt Q92769). The assay can be described thus: Inhibition of HDAC2 deacetylase activity in vitro. Particulars: ratio of IC50 values.

Structures are written as SMILES.

Sequence of HDAC2 (Q92769 whole entry): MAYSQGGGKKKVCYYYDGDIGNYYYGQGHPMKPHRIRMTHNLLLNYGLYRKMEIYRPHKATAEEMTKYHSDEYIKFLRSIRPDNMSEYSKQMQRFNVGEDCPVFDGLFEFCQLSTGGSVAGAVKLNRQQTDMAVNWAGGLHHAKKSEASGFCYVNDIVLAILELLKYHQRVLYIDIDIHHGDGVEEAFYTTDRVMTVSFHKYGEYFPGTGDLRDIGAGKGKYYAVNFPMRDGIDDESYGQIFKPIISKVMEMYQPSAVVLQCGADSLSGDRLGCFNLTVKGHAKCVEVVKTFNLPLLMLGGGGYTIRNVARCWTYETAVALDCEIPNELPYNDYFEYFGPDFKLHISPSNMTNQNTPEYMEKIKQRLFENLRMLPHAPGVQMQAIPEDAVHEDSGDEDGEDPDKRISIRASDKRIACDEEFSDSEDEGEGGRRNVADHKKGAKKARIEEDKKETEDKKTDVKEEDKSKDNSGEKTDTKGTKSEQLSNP

As for `O=C(NO)c1ccc2ccn(Cc3ccc(Cl)cc3)c2c1` [Compound 18, 1-(4-chloro-phenylmethyl)-1H-indole-6-carboxylic acid hydroxyamide], on HDAC8, the IC50 was less than 100 nM. Moreover, on HDAC1, the HDAC-1/HDAC-8 entry is given as “B (B >100)”.

Turning to `O=C(NO)c1ccc2ccn(CCCc3ccccc3)c2c1` [Compound 14, 1-(3-phenylpropyl)-1H-indole-6-carboxylic acid hydroxyamide], the half-maximal inhibitory concentration (IC50) at HDAC8 is less than 100 nM. Further, the HDAC-1/HDAC-8 result at HDAC1 is “A (A >10 and <100)”.

With `O=C(NO)c1ccc2ccn(Cc3ccccc3)c2c1` [Compound 6, 1-(benzyl)-1H-indole-6-carboxylic acid hydroxyamide], the IC50 on HDAC8 is less than 100 nM. For the same compound, the HDAC-1/HDAC-8 result on HDAC1 was “A (A >10 and <100)”.

On HDAC8, `COc1cc(Cn2ccc3ccc(C(=O)NO)cc32)cc(OC)c1OC` [Compound 3, 1-(3,4,5-trimethoxy-phenylmethyl)-1H-indole-6-carboxylic acid hydroxyamide] had an IC50 of more than 100 nM. Besides, the HDAC-1/HDAC-8 result on HDAC1 was “A (A >10 and <100)”.

As for `O=C(NO)c1ccc2ccn(Cc3ccc4ccccc4c3)c2c1` [Compound 13, 1-(naphth-2-ylmethyl)-1H-indole-6-carboxylic acid hydroxyamide], the IC50 against HDAC8 was less than 100 nM. Moreover, the HDAC-1/HDAC-8 entry at HDAC1 was “A (A >10 and <100)”.

The compound `O=C(NO)c1ccc2ccn(CC3CCCCC3)c2c1` [Compound 15, 1-(cyclohexylmethyl)-1H-indole-6-carboxylic acid hydroxyamide] gave an IC50 at HDAC8 of less than 100 nM. Also, the HDAC-1/HDAC-8 entry at HDAC1 is “A (A >10 and <100)”.

The compound `Cn1cc(Cc2ccc(NC(=O)c3ccccc3)cc2)c2cc(C(=O)NO)ccc21` [Compound 36, 1-methyl-3-[4-(phenylcarbonylamino)-phenylmethyl]-1H-indole-5-carboxylic acid hydroxyamide] gave an IC50 against HDAC8 of less than 100 nM. Moreover, on HDAC1, the HDAC-1/HDAC-8 result was “A (A >10 and <100)”.

`Cc1ccc(Cn2ccc3ccc(C(=O)NO)cc32)cc1` [Compound 20, 1-(4-methyl-phenylmethyl)-1H-indole-6-carboxylic acid hydroxyamide]: at HDAC8, the IC50 is less than 100 nM. For the same compound, the HDAC-1/HDAC-8 result on HDAC1 is listed as “B (B >100)”.

In the case of `CC(C)n1cc(Cc2ccccc2)c2cc(C(=O)NO)ccc21` [Compound 37, 1-isopropyl-3-(phenylmethyl)-1H-indole-5-carboxylic acid hydroxyamide], the IC50 at HDAC8 is less than 100 nM. Besides, on HDAC1, the HDAC-1/HDAC-8 entry was “A (A >10 and <100)”.

Regarding `O=C(NO)c1ccc2ccn(CC=Cc3ccccc3)c2c1` [Compound 16, 1-[1-(phenyl)-propen-3-yl]-1H-indole-6-carboxylic acid hydroxyamide], the IC50 against HDAC8 is less than 100 nM. Also, at HDAC1, the HDAC-1/HDAC-8 entry is “B (B >100)”.

Consider `O=C(NO)c1ccc2ccn(Cc3ccc(OC(F)F)cc3)c2c1` [Compound 22, 1-[4-(difluoromethoxy)-phenylmethyl]-1H-indole-6-carboxylic acid hydroxyamide], for which the IC50 against HDAC8 is less than 100 nM. Also, the HDAC-1/HDAC-8 result on HDAC1 is “B (B >100)”.

The compound `O=C(NO)c1ccc2ccn(Cc3ccc(F)cc3)c2c1` [Compound 9, 1-(4-fluoro-phenylmethyl)-1H-indole-6-carboxylic acid hydroxyamide] displayed an IC50 on HDAC8 of less than 100 nM. The HDAC-1/HDAC-8 entry on HDAC1 was “A (A >10 and <100)”.

With `Cc1cccc(Cn2ccc3ccc(C(=O)NO)cc32)c1` [Compound 5, 1-(3-methyl-phenylmethyl)-1H-indole-6-carboxylic acid hydroxyamide], the IC50 on HDAC8 was less than 100 nM. Moreover, the HDAC-1/HDAC-8 entry at HDAC1 is “A (A >10 and <100)”.

`COc1cc(Cn2ccc3ccc(C(=O)NO)cc32)cc(OC)c1` [Compound 7, 1-(3,5-dimethoxy-phenylmethyl)-1H-indole-6-carboxylic acid hydroxyamide] gave an IC50 against HDAC8 of less than 100 nM. Further, the HDAC-1/HDAC-8 entry at HDAC1 was “A (A >10 and <100)”.

For the compound `Cn1cc(Cc2ccc([N+](=O)[O-])cc2)c2cc(C(=O)NO)ccc21` [Compound 34, 1-methyl-3-(4-nitro-phenylmethyl)-1H-indole-5-carboxylic acid hydroxyamide], on HDAC10, the HDAC-10/HDAC-8 entry was “B (B >100)”. Moreover, at HDAC6, the HDAC-6/HDAC-8 result is “A (A >10 and <100)”. Moreover, the HDAC-3/HDAC-8 result on HDAC3 was “A (A >10 and <100)”. This compound also registered an IC50 on HDAC8 of less than 100 nM. Also, at HDAC1, the HDAC-1/HDAC-8 result was “A (A >10 and <100)”. Also, the HDAC-2/HDAC-8 result on HDAC2 was “B (B >100)”.

For the compound `O=C(NO)c1ccc2ccn(Cc3ccc(OC(F)(F)F)cc3)c2c1` [Compound 17, 1-[4-(trifluoromethoxy)-phenylmethyl]-1H-indole-6-carboxylic acid hydroxyamide], the IC50 against HDAC8 was less than 100 nM. Besides, at HDAC1, the HDAC-1/HDAC-8 result is reported as “B (B >100)”.

`Cc1ccccc1Cn1ccc2ccc(C(=O)NO)cc21` [Compound 2, 1-(2-methyl-phenylmethyl)-1H-indole-6-carboxylic acid hydroxyamide] returned an IC50 against HDAC8 of less than 100 nM. Moreover, the HDAC-1/HDAC-8 entry at HDAC1 is “A (A >10 and <100)”.

On to `CC(c1ccccc1)n1ccc2ccc(C(=O)NO)cc21` (stereo not shown) [Compound 8, 1-(1-methyl-1-phenylmethyl)-1H-indole-6-carboxylic acid hydroxyamide], for which, at HDAC8, the IC50 was less than 100 nM. The HDAC-1/HDAC-8 result on HDAC1 is “A (A >10 and <100)”.

Turning to `O=C(NO)c1ccc2ccn(Cc3ccccc3Cl)c2c1` [Compound 11, 1-(2-chloro-phenylmethyl)-1H-indole-6-carboxylic acid hydroxyamide], the IC50 against HDAC8 was less than 100 nM. In addition, the HDAC-1/HDAC-8 entry at HDAC1 is “A (A >10 and <100)”.

As for `O=C(NO)c1ccc2ccn(Cc3ccc(Cl)c(Cl)c3)c2c1` [Compound 1, 1-(3,4-dichloro-phenylmethyl)-1H-indole-6-carboxylic acid hydroxyamide], the IC50 against HDAC8 is less than 100 nM. Besides, the HDAC-1/HDAC-8 entry on HDAC1 is “A (A >10 and <100)”.

For `O=C(NO)c1ccc2ccn(Cc3ccccc3F)c2c1` [Compound 10, 1-(2-fluoro-phenylmethyl)-1H-indole-6-carboxylic acid hydroxyamide], on HDAC8, the IC50 is less than 100 nM. In addition, the HDAC-1/HDAC-8 result at HDAC1 was “A (A >10 and <100)”.

On HDAC8, `O=C(NO)c1ccc2ccn(Cc3ccc4nonc4c3)c2c1` [Compound 19, 1-(benzo[2,1,3]oxadiazol-5-ylmethyl)-1H-indole-6-carboxylic acid hydroxyamide] gave an IC50 of less than 100 nM. Also, at HDAC1, the HDAC-1/HDAC-8 entry is on record as “B (B >100)”.

On HDAC8, `Cn1cc(Cc2ccc(N)cc2)c2cc(C(=O)NO)ccc21` [Compound 38, 1-methyl-3-(4-amino-phenylmethyl)-1H-indole-5-carboxylic acid hydroxyamide] registered an IC50 of less than 100 nM. The HDAC-1/HDAC-8 result on HDAC1 is “A (A >10 and <100)”.

In turn, `CCn1cc(Cc2ccccc2)c2cc(C(=O)NO)ccc21` [Compound 35, 1-ethyl-3-(phenylmethyl)-1H-indole-5-carboxylic acid hydroxyamide] returned an IC50 against HDAC8 of less than 100 nM. On HDAC1, the HDAC-1/HDAC-8 entry was “A (A >10 and <100)”.

The compound `COc1ccc(Cn2ccc3ccc(C(=O)NO)cc32)cc1F` [Compound 21, 1-(3-fluoro-4-methoxy-phenylmethyl)-1H-indole-6-carboxylic acid hydroxyamide] yielded an IC50 against HDAC8 of less than 100 nM. On HDAC1, the HDAC-1/HDAC-8 entry was “B (B >100)”.

For the compound `Cn1cc(Cc2ccc(F)cc2)c2cc(C(=O)NO)ccc21` [Compound 39, 1-methyl-3-(4-fluoro-phenylmethyl)-1H-indole-5-carboxylic acid hydroxyamide], on HDAC10, the HDAC-10/HDAC-8 result is on record as “B (B >100)”. At HDAC6, the HDAC-6/HDAC-8 result is “A (A >10 and <100)”. In addition, the HDAC-3/HDAC-8 entry on HDAC3 was “A (A >10 and <100)”. The same compound registered an IC50 against HDAC8 of less than 100 nM. Moreover, the HDAC-1/HDAC-8 result on HDAC1 is “B (B >100)”. The HDAC-2/HDAC-8 result at HDAC2 is reported as “B (B >100)”.

In the case of `COc1cccc(Cn2ccc3ccc(C(=O)NO)cc32)c1` [Compound 12, 1-(3-methoxy-phenylmethyl)-1H-indole-6-carboxylic acid hydroxyamide], the IC50 against HDAC8 was less than 100 nM. For the same compound, the HDAC-1/HDAC-8 entry on HDAC1 was “A (A >10 and <100)”.

For the compound `O=C(NO)c1ccc2ccn(Cc3cccc(F)c3)c2c1` [Compound 4, 1-(3-fluoro-phenylmethyl)-1H-indole-6-carboxylic acid hydroxyamide], the IC50 against HDAC8 was less than 100 nM. The HDAC-1/HDAC-8 entry on HDAC1 was “A (A >10 and <100)”.

The values are drawn from patent publication US9371281B2, “Indole derivatives as inhibitors of histone deacetylase” (Pharmacyclics LLC, priority 2006, dated 2016).
